Reference: ChEMBL document CHEMBL4420060, “Combinatorial therapies for the treatment of neoplasias using the opioid growth factor receptor” (2013)
Activity calls are given as the source filed them. The rule behind the calls is not given here.

Experiments:
MIA PaCa-2 [1] = test: Growth inhibition of human MIAPaCa2 cells assessed as decrease in cell number at 1 uM incubated for 96 hrs by MTS assay relative to control; type: functional
UMSCC1 = test: Growth inhibition of human UM-SCC-1 cells assessed as decrease in cell number at 1 uM by MTS assay relative to control; type: functional, cell-based
MIA PaCa-2 [2] = test: Growth inhibition of human MIAPaCa2 cells assessed as decrease in cell number at 1 uM incubated for 48 to 96 hrs by MTS assay relative to control; type: functional; parameters: scale not given: the % may be the effect or the level left
MIA PaCa-2 [3] = test: Growth inhibition of human MIAPaCa2 cells assessed as decrease in cell number at 1 uM incubated for 72 hrs in presence of 1 uM OGF by MTS assay relative to control; type: functional; conditions: MIA PaCa-2, 72 h, read-out: GI
MIA PaCa-2 [4] = test: Growth inhibition of human MIAPaCa2 cells assessed as decrease in cell number at 10 uM incubated for 96 hrs in presence of 1 uM OGF by MTS assay relative to control; type: functional
MIA PaCa-2 [5] = test: Growth inhibition of human MIAPaCa2 cells assessed as decrease in cell number at 10 uM incubated for 24 hrs in presence of 1 uM OGF by MTS assay relative to control; type: functional
MIA PaCa-2 [6] = test: Growth inhibition of human MIAPaCa2 cells assessed as decrease in cell number at 10 uM incubated for 72 hrs in presence of 1 uM OGF by MTS assay relative to control; type: functional
MIA PaCa-2 [7] = test: Growth inhibition of human MIAPaCa2 cells assessed as decrease in cell number at 10 uM incubated for 48 hrs in presence of 1 uM OGF by MTS assay relative to control; type: functional
MIA PaCa-2 [8] = test: Growth inhibition of human MIAPaCa2 cells assessed as decrease in cell number at 1 uM incubated for 24 hrs in presence of 1 uM OGF by MTS assay relative to control; type: functional; conditions: MIA PaCa-2, 24 h, read-out: GI
MIA PaCa-2 [9] = test: Growth inhibition of human MIAPaCa2 cells assessed as decrease in cell number at 1 uM incubated for 24 to 96 hrs in presence of 1 uM OGF by MTS assay relative to control; type: functional; parameters: scale not given: the % may be the effect or the level left
MIA PaCa-2 [10] = test: Growth inhibition of human MIAPaCa2 cells assessed as decrease in cell number at 1 uM incubated for 48 hrs in presence of 1 uM OGF by MTS assay relative to control; type: functional; conditions: MIA PaCa-2, 48 h, read-out: GI

## CC(C)C[C@@H](NC(=O)[C@H](Cc1ccccc1)NC(=O)CNC(=O)[C@@H](C)NC(=O)[C@@H](N)Cc1ccc(O)cc1)C(=O)O
MIA PaCa-2 [1]
  growth inhibition (GI): inactive
UMSCC1
  growth inhibition (GI): inactive

## C[C@@H](NC(=O)[C@@H](N)Cc1ccc(O)cc1)C(=O)NCC(=O)N(C)[C@@H](Cc1ccccc1)C(=O)NCCO
MIA PaCa-2 [1]
  growth inhibition (GI): inactive
UMSCC1
  growth inhibition (GI): inactive

## O=c1[nH]cc(F)c(=O)[nH]1 [FLUOROURACIL]
MIA PaCa-2 [2]
  Activity: 11 - 15%
MIA PaCa-2 [3]
  inhibition of growth at 1 µM: 23.6%
MIA PaCa-2 [4]
  growth inhibition (GI): 47.4%
MIA PaCa-2 [5]
  growth inhibition (GI): 21.5%
MIA PaCa-2 [6]
  growth inhibition (GI): 39.7%
MIA PaCa-2 [7]
  growth inhibition (GI): 35.7%
MIA PaCa-2 [8]
  inhibition of growth at 1 µM: 13.2%
MIA PaCa-2 [9]
  Activity: 13 - 30%
MIA PaCa-2 [10]
  inhibition of growth at 1 µM: 22.2%

## CC[C@H](C)C(NC(=O)[C@@H](NC(=O)[C@H](C)NC(=O)[C@H](CC(N)=O)NC(=O)[C@H](CCCCN)NC(=O)[C@H](Cc1ccccc1)NC(=O)[C@H](CC(C)C)NC(=O)[C@@H](NC(=O)[C@@H](NC(=O)[C@H](CC(C)C)NC(=O)[C@@H]1CCCN1C(=O)[C@@H](NC(=O)[C@H](CCC(N)=O)NC(=O)[C@H](CO)NC(=O)[C@H](CCCCN)NC(=O)[C@H](CCC(=O)O)NC(=O)[C@H](CO)NC(=O)[C@@H](NC(=O)[C@H](CCSC)NC(=O)[C@H](Cc1ccccc1)NC(=O)CNC(=O)CNC(=O)[C@@H](N)Cc1ccc(O)cc1)[C@@H](C)O)C(C)O)C(C)C)[C@@H](C)O)[C@@H](C)CC)C(=O)N[C@@H](CCCCN)C(=O)N[C@@H](CC(N)=O)C(=O)N[C@@H](C)C(=O)N[C@@H](Cc1ccc(O)cc1)C(=O)N[C@@H](CCCCN)C(=O)N[C@@H](CCCCCN)C(=O)NCC(=O)N[C@@H](CCC(=O)O)C(=O)O (some centres undefined)
MIA PaCa-2 [1]
  growth inhibition (GI): inactive
